From paper PMC6269819, “Evaluation of the Biological Activity of Naturally Occurring 5,8-Dihydroxycoumarin” (Molecules, 2013)
Marks after values point to notes of the source that are not given here.

Tests used:
[1] = system: Drosophila melanogaster wing cells; experiment: Somatic mutation and recombination test (SMART), wing spot test; assay type: in vivo
Procedure: The basic procedures for the D. melanogaster somatic mutation and recombination test (SMART) were performed according to Graf and co-workers. Two D. melanogaster strains (kindly provided by Dr. H. Frei, Zurich, Switzerland) were used in the present study: virgin females from the strain ORR/ORR; flr^3/ In (3LR) TM3, ri p^p sep l(3)89Aa bx^34e e Bd^S were mated with mwh/mwh males. The ORR strain has chromosomes 1 and 2 from a DDT-resistant Oregon line, which are characterized by constitutively over-expressed CYP450 genes. The CYP 450 enzymes play the main role in the bioactivation of xenobiotics, as well as natural products including phytochemicals. Thus, the use of this high-bioactivation strain of D. melanogaster facilitates the detection of promutagens of numerous classes of compounds. The markers mwh (multiple wing hairs) and flr^3 (misshapen, flare-like hairs) are recessive wing-hair mutations located on the third chromosome at 0.3 and 38.8 respectively.
Eggs from the crosses were collected over 10 h periods. Progeny were raised on the Instant Drosophila Medium (Sigma Chemical Co., St. Louis, MO, USA) at 25 °C. Two schedules of the larvae treatment were applied. Firstly, the crossed flies were permitted to lay eggs for 10 h in vials containing medium prepared with 5,8-DHC solution. Thus, the exposure duration was about 120 h (i.e., evolutionary period from fly egg till case-worm). According to the second schedule, the 72 ± 5 h-old larvae were exposed to 5,8-DHC by adding test solution to the surface of the medium and were fed on this medium for the rest of their development, during approximately 48 h. 5,8-DHC was dissolved in ethanol and then diluted with distilled water to the desired concentration, with the final ethanol concentration 5% v/v. The solutions were always prepared immediately before use. Solvent controls were included in all treatments. Methyl methanesulfonate was included in the assay as a positive control. Trans-heterozygous (mwh flr^+ / mwh^+ flr^3) flies were collected and stored in a 70% ethanol. The wings of adult flies were mounted on glass slides in Faure’s solution, coded and scored at 400× magnification (Nikon E200) for the presence of single (mwh or flr^3 phenotype) or twin (adjacent mwh and flr^3 clones) spots. The spots were recorded according to standard procedures. No less than 40 wings were analysed per each experimental point. Two repeated experiments were carried out.

[2] = DPPH• radical scavenging assay; settings: 16 min reaction
Procedure: Radical scavenging activity of extracts against stable DPPH^• (2,2-diphenyl-[…] hydrate, Sigma-Aldrich Chemie, Steinheim, Germany) was determined spectrophotometrically by using slightly modified method of Brand-Williams et al. (1995). 5,8-DHC was dissolved in methanol at 0.0025, 0.005, 0.010 and 0.025% concentrations before reaction. A 2 mL aliquot of DPPH^• solution in methanol (6 × 10^−5 M) was mixed with a 50 μL of 5,8-DHC solution in 1 cm path length quartz cuvette. The decreasing absorbance at 515 nm was recorded on a UV spectrophotometer Spectronic Genesys 8 (Spectronic Instruments, Rochester, NY, USA) during 16 min reaction time at 1 min intervals until the absorbance curve reached the plateau. The same amount of methanol and DPPH^• solution was used as a blank. The experiments were carried out in triplicate.

[3] = test solution 0.1%, exposure duration 48 h
[4] = test solution 0.1%, exposure duration 120 h
[5] = test solution 0.25%, exposure duration 48 h
[6] = test solution 0.25%, exposure duration 120 h
[7] = test solution 0.5%, exposure duration 48 h
[8] = test solution 0.5%, exposure duration 120 h

SMILES: O=c1ccc2c(O)ccc(O)c2o1 [5,8-DHC, 5,8-Dihydroxycoumarin]
- large single spots ([1]; 0.5% 5,8-DHC, 120 h of treatment): 0.10 spots per wing
- increase in the number of somatic mutations ([1]; 48 h treatment): no statistically significant increase
- genotoxicity in SMART ([1]; 120 h treatment): slight genotoxicity
- frequency of twin spots ([1]; range over concentrations): 0–0.04 spots per wing
- Spots/wing (±S.E.M.) [1, 3]: 0.27 ± 0.04 spots/wing
- Wings with spots (% ± S.E.M.) [1, 3]: 26.8 ± 4.5%
- Spots/wing (±S.E.M.) [1, 4]: 0.25 ± 0.04 ^a spots/wing
- Wings with spots (% ± S.E.M.) [1, 4]: 22.4 ± 4.2%
- Spots/wing (±S.E.M.) [1, 5]: 0.22 ± 0.04 spots/wing
- Wings with spots (% ± S.E.M.) [1, 5]: 21.1 ± 4.3%
- Spots/wing (±S.E.M.) [1, 6]: 0.30 ± 0.04 ^a spots/wing
- Wings with spots (% ± S.E.M.) [1, 6]: 27.1 ± 4.5^a %
- Spots/wing (±S.E.M.) [1, 7]: 0.27 ± 0.04 spots/wing
- Wings with spots (% ± S.E.M.) [1, 7]: 25.0 ± 4.4%
- Spots/wing (±S.E.M.) [1, 8]: 0.32 ± 0.04 ^a spots/wing
- Wings with spots (% ± S.E.M.) [1, 8]: 28.9 ± 4.6^a %
- IC50 in DPPH• assay [2]: 0.0185%
